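Results reflect a 48-hour exposure of cells in 96-well plates to compound at five concentrations. The concentration for 50% growth inhibition is given as GI50.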 The source made the active and inactive calls. No stated cut-off is given here; in the data, active = GI50 up to about 1.1 µM and inactive = higher.
Legend:
Test in all cases: DTP human tumour cell line panel, 48 h
[1] = test system: 786-0
[2] = test system: A549
[3] = test system: ACHN
[4] = test system: CCRF-CEM
[5] = test system: COLO 205
[6] = test system: DLD-1
[7] = test system: DMS-114
[8] = test system: DMS-273
[9] = test system: EKVX
[10] = test system: HCT-116
[11] = test system: HCT-15
[12] = test system: HL-60
[13] = test system: HOP-18
[14] = test system: HOP-62
[15] = test system: HT-29
[16] = test system: IGROV-1
[17] = test system: K562
[18] = test system: KM-20L2
[19] = test system: KM12
[20] = test system: LOX IMVI
[21] = test system: M14
[22] = test system: M19-MEL
[23] = test system: MOLT-4
[24] = test system: Malme-3M
[25] = test system: NCI-H226
[26] = test system: NCI-H23
[27] = test system: NCI-H460
[28] = test system: NCI-H522
[29] = test system: OVCAR-3
[30] = test system: OVCAR-8
[31] = test system: RPMI-8226
[32] = test system: RXF 393
[33] = test system: SF-295
[34] = test system: SF-539
[35] = test system: SK-MEL-28
[36] = test system: SK-MEL-2
[37] = test system: SK-MEL-5
[38] = test system: SK-OV-3
[39] = test system: SN12C
[40] = test system: SNB-19
[41] = test system: SNB-75
[42] = test system: SW-620
[43] = test system: TK-10
[44] = test system: U-251
[45] = test system: UACC-257
[46] = test system: UACC-62
[47] = test system: UO-31
[48] = test system: XF498
[49] = test system: CAKI-1
[50] = test system: HCC 2998
[51] = test system: HOP-92
[52] = test system: LXFL 529
[53] = test system: OVCAR-4
[54] = test system: OVCAR-5
[55] = test system: SF-268
[56] = test system: SR
[57] = test system: BT-549
[58] = test system: DU-145
[59] = test system: Hs-578T
[60] = test system: MDA-MB-231
[61] = test system: MDA-MB-435
[62] = test system: MDA-N
[63] = test system: PC-3
[64] = test system: SNB-78
[65] = test system: T47D

With `O=C(Nc1cc(Cl)ccc1Cl)c1cc2cccc(Br)c2oc1=O` the GI50 [1] was > 100 µM (inactive), the GI50 [2] was > 100 µM (inactive) and the GI50 [3] was > 100 µM (inactive). For the same molecule, the GI50 [4] was > 100 µM (inactive), the GI50 [5] was > 100 µM (inactive) and the GI50 [6] was > 100 µM (inactive). For the same molecule, the GI50 [7] was > 100 µM (inactive), the GI50 [8] was > 100 µM (inactive) and the GI50 [9] was > 100 µM (inactive). For the same molecule, the GI50 [10] was > 100 µM (inactive), the GI50 [11] was over 100 µM and the GI50 [12] was > 100 µM (inactive). The GI50 [13] was > 100 µM (inactive), the GI50 [14] was 47.2 µM (inactive) and the GI50 [15] was > 100 µM (inactive). For the same molecule, the GI50 [16] was > 100 µM (inactive), the GI50 [17] was > 100 µM (inactive) and the GI50 [18] was > 100 µM (inactive). For the same molecule, the GI50 [19] was > 100 µM (inactive), the GI50 [20] was > 100 µM (inactive) and the GI50 [21] was > 100 µM (inactive). The GI50 [22] was > 100 µM (inactive), the GI50 [23] was > 100 µM (inactive) and the GI50 [24] was > 100 µM (inactive). For the same molecule, the GI50 [25] was > 100 µM (inactive), the GI50 [26] was > 100 µM (inactive) and the GI50 [27] was > 100 µM (inactive). For the same molecule, the GI50 [28] was > 100 µM (inactive), the GI50 [29] was 59.8 µM (inactive) and the GI50 [30] was 57.1 µM (inactive). For the same molecule, the GI50 [31] was > 100 µM (inactive), the GI50 [32] was > 100 µM (inactive) and the GI50 [33] was 63.4 µM (inactive). For the same molecule, the GI50 [34] was 56.4 µM (inactive), the GI50 [35] was > 100 µM (inactive) and the GI50 [36] was > 100 µM (inactive). For the same molecule, the GI50 [37] was > 100 µM (inactive), the GI50 [38] was > 100 µM (inactive) and the GI50 [39] was > 100 µM (inactive). For the same molecule, the GI50 [40] was > 100 µM (inactive), the GI50 [41] was 34.9 µM (inactive) and the GI50 [42] was > 100 µM (inactive). The GI50 [43] was > 100 µM (inactive), the GI50 [44] was 70.5 µM (inactive) and the GI50 [45] was > 100 µM (inactive). The GI50 [46] was > 100 µM (inactive), the GI50 [47] was > 100 µM (inactive) and the GI50 [48] was 21.9 µM (inactive).

In the case of `O=C(O)C(CS)Nc1c2ccccc2nc2ccccc12` (configuration not stated), the GI50 [1] was > 100 µM (inactive), the GI50 [2] was 67.5 µM (inactive) and the GI50 [3] was 38.3 µM (inactive). For the same molecule, the GI50 [49] was 44.7 µM (inactive), the GI50 [4] was 79.3 µM (inactive) and the GI50 [5] was 37.7 µM (inactive). The GI50 [6] was 78.9 µM (inactive), the GI50 [7] was 27.7 µM (inactive) and the GI50 [8] was 34.6 µM (inactive). The GI50 [9] was 42.7 µM (inactive), the GI50 [50] was 82 µM (inactive) and the GI50 [10] was > 10 µM (inactive). The GI50 [11] was 51.3 µM, the GI50 [12] was 80.4 µM (inactive) and the GI50 [51] was 49.7 µM (inactive). The GI50 [15] was 46.6 µM (inactive), the GI50 [16] was > 100 µM (inactive) and the GI50 [17] was 49.7 µM (inactive). The GI50 [18] was 49.8 µM (inactive), the GI50 [19] was 59.6 µM (inactive) and the GI50 [20] was 40.6 µM (inactive). For the same molecule, the GI50 [52] was > 100 µM (inactive), the GI50 [21] was 43.7 µM (inactive) and the GI50 [22] was 57 µM (inactive). The GI50 [23] was 38.3 µM (inactive), the GI50 [24] was 54.3 µM (inactive) and the GI50 [25] was > 100 µM (inactive). For the same molecule, the GI50 [26] was 91.8 µM (inactive), the GI50 [27] was 36.1 µM (inactive) and the GI50 [28] was 29.1 µM (inactive). The GI50 [29] was 49.9 µM (inactive), the GI50 [53] was 19.7 µM (inactive) and the GI50 [54] was 53.5 µM (inactive). The GI50 [30] was 48.3 µM (inactive), the GI50 [31] was 48.2 µM (inactive) and the GI50 [32] was > 100 µM (inactive). For the same molecule, the GI50 [55] was > 100 µM (inactive), the GI50 [33] was 56.9 µM (inactive) and the GI50 [34] was 50 µM (inactive). The GI50 [35] was > 100 µM (inactive), the GI50 [36] was 83.9 µM (inactive) and the GI50 [38] was > 100 µM (inactive). For the same molecule, the GI50 [39] was 51.1 µM (inactive), the GI50 [40] was 61.1 µM (inactive) and the GI50 [41] was > 100 µM (inactive). For the same molecule, the GI50 [56] was 36.3 µM (inactive), the GI50 [42] was 54.1 µM (inactive) and the GI50 [43] was 35.6 µM (inactive). For the same molecule, the GI50 [44] was > 100 µM (inactive), the GI50 [45] was 58.5 µM (inactive) and the GI50 [47] was 26 µM (inactive). The GI50 [48] was 24.9 µM (inactive).

In the case of `C/C=C(\C)c1cc(=O)c2c(C)cc3c(c2o1)C(=O)c1c(O)c(C2CC(C)(N(C)C)C(O)C(C)O2)cc(C2CC(N(C)C)C(O)C(C)O2)c1C3=O` (configuration not stated), the GI50 [1] was 0.13 µM (active), the GI50 [3] was 0.0789 µM (active) and the GI50 [57] was 0.223 µM (active). For the same molecule, the GI50 [6] was 2.31 µM (inactive), the GI50 [7] was 1.5 µM (inactive) and the GI50 [8] was 1.91 µM (inactive). For the same molecule, the GI50 [58] was 0.138 µM (active), the GI50 [13] was 0.154 µM (active) and the GI50 [51] was 0.256 µM (active). The GI50 [59] was 0.247 µM (active), the GI50 [18] was 2.81 µM (inactive) and the GI50 [21] was 0.129 µM (active). The GI50 [22] was 3.21 µM (inactive), the GI50 [60] was 0.156 µM (active) and the GI50 [61] was 0.217 µM (active). For the same molecule, the GI50 [62] was 0.178 µM (active), the GI50 [63] was 0.229 µM (active) and the GI50 [64] was 3.87 µM (inactive). The GI50 [56] was 0.267 µM (active), the GI50 [65] was 0.257 µM (active) and the GI50 [43] was 0.237 µM (active). For the same molecule, the GI50 [48] was < 0.01 µM (active).
